{"source": "patent US20090170759A1", "about": "“NEUROPROTECTIVE PEPTIDES” (priority 2007, published 2009)", "key": {"[1]": {"test_system": "spontaneous hypertensive rats", "test": "Experimental model of cerebral ischemia (tandem CCA/MCA occlusion), infarct volume", "assay_type": "in vivo, rat", "details": "listed as EPO", "procedure": "Male spontaneous hypertensive rats (Charles River) weighing between 250-300 g were weighed and then anesthetized with ketamine (100 mg/ml)/xylazine (20 mg/ml) cocktail (1.2 ml/kg; i.p.). The level of anesthetic was assessed by corneal reflex (air puff to eye) and leg jerk in response to tail or foot pinch. Once the rat was anesthetized, it was placed on a small animal surgical board and restrained during the surgical procedure. The rat's body temperature was monitored continuously with a rectal probe and maintained at 37° C. with a homeostatic heating pad.\nRats were rendered ischemic by tandem occlusion of the left common carotid artery and the left middle cerebral artery for 2 h followed by 22 h of reperfusion using a modification of the technique described by Brint and co-workers (J. Cereb Blood Flow Metab 8:474-485, 1988). Specifically, the left CCA was isolated through an incision in the ventral surface of the neck. […]\nStudy I: EPO and Vehicle Delivered Via Osmotic Mini-Pump • […] prior to the onset of ischemia, an osmotic mini-pump (Model 1003D; Alza) filled with vehicle or EPO was placed between the scapula of the rat. […] Twenty-two hours later, the rats were evaluated for behavioral performance, a blood sample was collected for terminal plasma levels of EPO and then the rat was euthanized, brain removed, sectioned and stained for histological analysis.\nStudy II: EPO and Vehicle Delivered as a Single Intravenous Bolus Injection • On Day One, the rats were rendered ischemic as described above. […] Twenty-two hours later, the rats were evaluated for behavioral performance, a blood sample was collected for terminal plasma levels of EPO and then the rat was euthanized, brain removed, sectioned and stained for histological analysis. […]"}, "PC-12 cells": {"test_system": "PC-12 cells", "test": "Glutamate toxicity in PC-12 cells (trypan blue exclusion)", "assay_type": "cell-based, rat", "procedure": "[…] cells (from a rat Pheochromocytoma) were cultured on poly-D-Lysine coated tissue culture plastic in DMEM containing 10% FBS and 5% Horse serum. To induce the neuronal phenotype in PC-12 cells, serum was removed and the cells were treated with NGF (50 ng/ml). Cells were grown for 7 days in the presence of the NGF then used for experiments.\nPC-12 cells were cultured as described above. 24 hr prior to insult, cells were treated with rhEPO at concentrations ranging from 1 pm to 1 nm. On the day of the experiment, cells were exposed to 200 μM glutamate for 30 min. Cells were then washed 2 times with fresh media to remove the glutamate and cultured in fresh media containing NGF but no EPO. After 24 hr cells were assayed for viability using a trypan blue exclusion assay. Briefly, media was removed and the cells were incubated in 0.4% Trypan Blue for 5 min. Cells were then washed gently with PBS, then fixed with 10% formalin. Cell viability was determined by counting the total number of cells vs. the number of trypan blue positive (dead) cells."}}, "note": "Entries after “also recorded” stand apart in the source; their conditions may differ."}
{"substance": "rhEPO: purified, recombinant human EPO (rhEPO), currently formulated and distributed under the trademarks of EPREX, ERYPO, or PROCRIT", "values": [{"measurement": "infarct volume, Study I", "setting": "[1]; 132 or 1321 U/day continuous iv infusion via osmotic mini-pump, started before ischemia", "result": "significantly reduced infarct volume; also recorded: protects against ischemic injury"}, {"measurement": "infarct volume, Study III", "setting": "[1]; repeat iv bolus of 2500 U/kg at 15 min, 2 h, 4 h and 6 h post-occlusion", "result": "significant decrease in infarct volume; also recorded: protects against ischemic injury"}, {"measurement": "ischemic damage, Study II", "setting": "[1]; single iv bolus 15 min post-occlusion at 1000, 2500 or 5000 U/kg", "result": "did not protect against ischemic damage; also recorded: does not protect against ischemic injury"}, {"measurement": "neuroprotective effect at 1 nm, glutamate toxicity", "setting": "PC-12 cells; 1 nm", "result": "no significant effect"}, {"measurement": "cell survival after glutamate (in words)", "setting": "PC-12 cells; 1 to 10 pm given 24 hours prior to glutamate (200 um), p<0.001", "result": "significantly increased cell survival"}, {"measurement": "cell death induced by glutamate toxicity (in words)", "setting": "PC-12 cells; 24 hr pre-treatment", "result": "significant decrease in cell death"}, {"measurement": "peak concentration for the neuroprotective effect, glutamate toxicity", "setting": "PC-12 cells; 24 hr pre-treatment, 200 μM glutamate", "result": 10, "unit": "pm"}]}
